{"source": "paper PMC6607443", "about": "“Systematic identification of recognition motifs for the hub protein LC8” (Life Science Alliance, 2019)", "key": {"LC8 [1]": {"target": "LC8 (UniProt P63167)", "sequence (P63167 whole entry, the tested form may be a part)": "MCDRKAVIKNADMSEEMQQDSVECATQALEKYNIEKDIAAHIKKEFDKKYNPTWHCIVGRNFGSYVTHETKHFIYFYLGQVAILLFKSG", "assay": "ITC of synthetic peptides binding to LC8", "conditions": "for Binder?: 500 μM peptide into 25 μM LC8; for binding to LC8 via ITC (in words): strong = Kd fit, weak = heat but not fit (>25 μM)"}, "LC8 [2]": {"target": "LC8 (UniProt P63167)", "conditions": "rotavirus A VP4 residues 644–651; ref Martínez-Moreno et al, 2003; cited from earlier work", "source_text": "We scanned Homo sapiens and viral proteomes for potential LC8-binding sequences based upon: (1) their propensity for disorder, (2) their sequence conservation across related species, and (3) the sequence’s similarity to known motifs. This final parameter used a PSSM based on the relative enrichment or depletion of each residue in a potential sequence, weighted by amino acid frequency. Enrichment and depletion PSSMs were populated using sequences that interact with LC8, verified either by mutagenesis or in vitro assays. ITC experiments were performed on 19 synthetic peptides with high-scoring s ..."}, "[3]": {"conditions": "Table 1, peptides synthesized from phage display hits, ITC, 25°C, 50 mM sodium phosphate, 50 mM NaCl, 1 mM sodium azide, 5 mM β-mercaptoethanol, pH 7.5"}, "[4]": {"conditions": "Table 2, peptides synthesized from favorable sequence comparisons (PSSM), ITC, 25°C, pH 7.5"}, "[5]": {"conditions": "Fig 3B, ITC, 25°C, 50 mM NaCl, 50 mM NaPO4, 1 mM NaN3, pH 7.5, single-site model, average of two to three independent experiments, read-out: Kd"}}, "note": "Where two headings read alike, the source gives them in different places. Where no end group is shown, it is not given here.", "data": [{"sequence": "AASLIQKMLQTDPTAR [PLK1, synthetic peptide from PLK1, UniProt P53350]", "values": [{"measurement": "Binder?", "setting": "LC8 [1]; [3]", "value": "N"}]}, {"sequence": "AKESCNMETQTSST [OFD1, synthetic peptide from OFD1, UniProt O75665]", "values": [{"measurement": "Binder?", "setting": "LC8 [1]; [3]", "value": "Y"}]}, {"sequence": "AQPKQKLDTSIQTEYP [MT/HEL (TMV), synthetic peptide from MT/HEL (TMV), UniProt P03586]", "values": [{"measurement": "Binder?", "setting": "LC8 [1]; [4]", "value": "N"}]}, {"sequence": "CLKETLQITQTEVQ [NFYC, synthetic peptide from NFYC, UniProt Q13952]", "values": [{"measurement": "Binder?", "setting": "LC8 [1]; [3]", "value": "N"}]}, {"sequence": "DDHSGNAQVTQTKFD [DDX1, synthetic peptide from DDX1, UniProt Q92499]", "values": [{"measurement": "Binder?", "setting": "LC8 [1]; [3]", "value": "N"}]}, {"sequence": "DDNHWTRSTQTTRE [MUC4]", "values": [{"measurement": "Binder?", "setting": "LC8 [1]; [3]", "value": "Y"}]}, {"sequence": "DDPMYSSQTQTYGD [KCNQ2, synthetic peptide from KCNQ2, UniProt O43526]", "values": [{"measurement": "Binder?", "setting": "LC8 [1]; [3]", "value": "N"}]}, {"sequence": "DDSGGNATTQTTSD [ROR1, synthetic peptide from ROR1, UniProt Q01973]", "values": [{"measurement": "Binder?", "setting": "LC8 [1]; [3]", "value": "Weak^a (Weak binders are those with affinities >25 μM)"}]}, {"sequence": "DERLMCTGSQTFDD [EFL1, synthetic peptide from EFL1, UniProt Q7Z2Z2]", "values": [{"measurement": "Binder?", "setting": "LC8 [1]; [3]", "value": "N"}]}, {"sequence": "DFTPAFADFGRQTPGG [EIF4G3, synthetic peptide from EIF4G3, UniProt O43432]", "values": [{"measurement": "Binder?", "setting": "LC8 [1]; [4]", "value": "N"}]}, {"sequence": "EGYRGTANTTTAAYLA [MSTL1, synthetic peptide from MSTL1, UniProt Q2TV78]", "values": [{"measurement": "Binder?", "setting": "LC8 [1]; [3]", "value": "N"}]}, {"sequence": "ESGDGNTGTQTNGL [POU2F1, synthetic peptide from POU2F1, UniProt P14859]", "values": [{"measurement": "Binder?", "setting": "LC8 [1]; [3]", "value": "N"}]}, {"sequence": "GQGAALTTATQTTHLE [GP1BA, synthetic peptide from GP1BA, UniProt P07359]", "values": [{"measurement": "Binder?", "setting": "LC8 [1]; [3]", "value": "Weak^a (Weak binders are those with affinities >25 μM)"}]}, {"sequence": "IDMSTQIG [rotavirus A VP4 residue position 644–651, site predicted and tested in a previous study]", "values": [{"measurement": "binding to LC8 (in words)", "setting": "LC8 [2]", "value": "did not bind LC8"}]}, {"sequence": "ISRMTQTP [RAVL, synthesized to validate previous data]", "values": [{"measurement": "Kd", "setting": "LC8 [1]; [5]", "value": 8, "unit": "µM"}]}, {"sequence": "ITSYNSQGTQLTVE [KY, synthetic peptide from KY, UniProt Q8NBH2]", "values": [{"measurement": "Binder?", "setting": "LC8 [1]; [3]", "value": "N"}]}, {"sequence": "KDGDTQTD [HTATSF1, peptide from HIV Tat-specific factor 1, UniProt O43719, predicted by LC8Pred]", "values": [{"measurement": "Kd", "setting": "LC8 [1]; ITC, 25°C, pH 7.5, single-site model, read-out: Kd", "value": 10, "unit": "µM"}, {"measurement": "binding to LC8 via ITC (in words)", "setting": "LC8 [1]; ITC, 25°C, pH 7.5", "value": "“strong” binder"}]}, {"sequence": "KHSGRQLTLQHHMG [CUL3, synthetic peptide from CUL3, UniProt Q13618]", "values": [{"measurement": "Binder?", "setting": "LC8 [1]; [3]", "value": "N"}]}, {"sequence": "KITFTKPSTQTTNT [EMSY, synthetic peptide from EMSY, UniProt Q7Z589]", "values": [{"measurement": "Binder?", "setting": "LC8 [1]; [3]", "value": "N"}]}, {"sequence": "KPFMLDEEGDTQTEET [EIF2S2, synthetic peptide from EIF2S2, UniProt P20042]", "values": [{"measurement": "Binder?", "setting": "LC8 [1]; [4]", "value": "N"}]}, {"sequence": "KSVAENGDTDTQTSMF [ZZZ3, synthetic peptide from ZZZ3, UniProt Q8IYH5]", "values": [{"measurement": "Binder?", "setting": "LC8 [1]; [4]", "value": "N"}]}, {"sequence": "KTLTFSGSSQTVTP [QSER1, synthetic peptide from QSER1, UniProt Q2KHR3]", "values": [{"measurement": "binding to LC8 via ITC (in words)", "setting": "LC8 [1]; ITC, 25°C, pH 7.5", "value": "nonbinders"}, {"measurement": "Binder?", "setting": "LC8 [1]; [3]", "value": "N"}]}, {"sequence": "LPRKVDTAAQTNSR [IRS1, synthetic peptide from IRS1, UniProt P35568]", "values": [{"measurement": "Binder?", "setting": "LC8 [1]; [3]", "value": "N"}]}, {"sequence": "LQETLTTSSQANLS [PPP2R3A, synthetic peptide from PPP2R3A, UniProt Q06190]", "values": [{"measurement": "Binder?", "setting": "LC8 [1]; [3]", "value": "N"}]}, {"sequence": "MDDIFTQCREGN [ILK, synthetic peptide from ILK, UniProt Q13418]", "values": [{"measurement": "Binder?", "setting": "LC8 [1]; [4]", "value": "N"}]}, {"sequence": "NKVFAKLHHNTQTFQA [CCL25, synthetic peptide from CCL25, UniProt O15444]", "values": [{"measurement": "Binder?", "setting": "LC8 [1]; [4]", "value": "N"}]}, {"sequence": "NQSFLRTPIQRTPH [SAV1, synthetic peptide from SAV1, UniProt Q9H4B6]", "values": [{"measurement": "Binder?", "setting": "LC8 [1]; [3]", "value": "N"}]}, {"sequence": "PLQATISKSQTNPV [UBN2, synthetic peptide from UBN2, UniProt Q6ZU65]", "values": [{"measurement": "Binder?", "setting": "LC8 [1]; [3]", "value": "N"}]}, {"sequence": "PRATAEFSTQTPSP [BSN^II]", "values": [{"measurement": "Kd", "setting": "LC8 [1]; pH 7.5", "value": 3.8, "unit": "µM"}]}, {"sequence": "RAAALPEETRSSRR [ZNF469, synthetic peptide from ZNF469, UniProt Q96JG9]", "values": [{"measurement": "Binder?", "setting": "LC8 [1]; [3]", "value": "N"}]}, {"sequence": "RGDGSDVSSQTPQT [ANKIB1, synthetic peptide from ANKIB1, UniProt Q9P2G1]", "values": [{"measurement": "Binder?", "setting": "LC8 [1]; [3]", "value": "N"}]}, {"sequence": "RNSQTQTD [VP35(EBV), synthesized to validate previous data]", "values": [{"measurement": "Kd", "setting": "LC8 [1]; [5]", "value": 0.8, "unit": "µM"}]}, {"sequence": "RSFVLPVESTQDVSSQ [CRYBG1, synthetic peptide from CRYBG1, UniProt Q9Y4K1]", "values": [{"measurement": "Binder?", "setting": "LC8 [1]; [3]", "value": "N"}]}, {"sequence": "RTSETNTP [NIN, peptide from ninein, UniProt Q8N4C6, predicted by LC8Pred]", "values": [{"measurement": "binding to LC8 via ITC (in words)", "setting": "LC8 [1]; ITC, 25°C, pH 7.5", "value": "bound to LC8"}]}, {"sequence": "SFRHPGYSTQTHVN [KLK7, synthetic peptide from KLK7, UniProt P49862]", "values": [{"measurement": "Binder?", "setting": "LC8 [1]; [3]", "value": "N"}]}, {"sequence": "SKTQQTFGSQTECT [TOGARAM1, synthetic peptide from TOGARAM1, UniProt Q9Y4F4]", "values": [{"measurement": "binding to LC8 via ITC (in words)", "setting": "LC8 [1]; ITC, 25°C, pH 7.5", "value": "weak binders"}, {"measurement": "Binder?", "setting": "LC8 [1]; [3]", "value": "Weak^a (Weak binders are those with affinities >25 μM)"}]}, {"sequence": "SMATPSSSTQTSGT [MUC5B-3, synthetic peptide from MUC5B, UniProt Q9HC84, residues 2,673-2,686]", "values": [{"measurement": "Binder?", "setting": "LC8 [1]; [3]", "value": "N"}]}, {"sequence": "SPSPTGLPTQTPGF [ARAP3, synthetic peptide from ARAP3, UniProt Q8WWN8]", "values": [{"measurement": "Binder?", "setting": "LC8 [1]; [3]", "value": "Weak^a (Weak binders are those with affinities >25 μM)"}]}, {"sequence": "SSRSAFSPLQPNAS [DMRTA2, synthetic peptide from DMRTA2, UniProt Q96SC8]", "values": [{"measurement": "Binder?", "setting": "LC8 [1]; [3]", "value": "N"}]}, {"sequence": "SSTEVQVE [OTOF, peptide from otoferlin, UniProt Q9HC10, predicted by LC8Pred]", "values": [{"measurement": "binding to LC8 via ITC (in words)", "setting": "LC8 [1]; ITC, 25°C, pH 7.5", "value": "bound to LC8"}]}, {"sequence": "STQTPSPAPASDMP [BSN-shift]", "values": [{"measurement": "binding to LC8 via ITC (in words)", "setting": "LC8 [1]; ITC, 25°C, pH 7.5", "value": "failed to demonstrate even weak binding to LC8"}, {"measurement": "Binder?", "setting": "LC8 [1]; [3]", "value": "N"}]}, {"sequence": "TEAKDQCSTQTDFN [EPAS1, synthetic peptide from EPAS1, UniProt Q99814]", "values": [{"measurement": "Binder?", "setting": "LC8 [1]; [3]", "value": "N"}]}, {"sequence": "TLQQPLELTASQLPAG [OTOG, synthetic peptide from OTOG, UniProt Q6ZRI0]", "values": [{"measurement": "Binder?", "setting": "LC8 [1]; [3]", "value": "N"}]}, {"sequence": "TLVSTASGTQTVFP [SH3RF2, synthetic peptide from SH3RF2, UniProt Q8TEC5]", "values": [{"measurement": "Binder?", "setting": "LC8 [1]; [3]", "value": "N"}]}, {"sequence": "TPTPTPTGTQTPTT [MUC2, synthetic peptide from MUC2, UniProt Q02817]", "values": [{"measurement": "Binder?", "setting": "LC8 [1]; [3]", "value": "N"}]}, {"sequence": "TQDDYFKDKRVHHFRRS [DAZL]", "values": [{"measurement": "Binder?", "setting": "LC8 [1]; [3]", "value": "N"}, {"measurement": "Binder?", "setting": "LC8 [1]; [4]", "value": "N"}]}, {"sequence": "TTLPVLTSTATKST [MUC5B-1, synthetic peptide from MUC5B, UniProt Q9HC84, residues 3,049-3,062]", "values": [{"measurement": "Binder?", "setting": "LC8 [1]; [3]", "value": "N"}]}, {"sequence": "VAQGTQTP [BSN^III, synthesized to validate previous data]", "values": [{"measurement": "Kd", "setting": "LC8 [1]; [5]", "value": 5.3, "unit": "µM"}]}, {"sequence": "YELMASLDQPTQTVVM [EIF3C, synthetic peptide from EIF3C, UniProt Q99613]", "values": [{"measurement": "Binder?", "setting": "LC8 [1]; [4]", "value": "N"}]}, {"sequence": "YGPDGEETETQTCPP [PRSS36, synthetic peptide from PRSS36, UniProt Q5K4E3]", "values": [{"measurement": "Binder?", "setting": "LC8 [1]; [4]", "value": "N"}]}, {"sequence": "YGQIAPENGTQTPSP [ITGAX, synthetic peptide from ITGAX, UniProt P20702]", "values": [{"measurement": "Binder?", "setting": "LC8 [1]; [4]", "value": "N"}]}, {"sequence": "YHHRILEAKSIQTSPT [FMN2, synthetic peptide from FMN2, UniProt Q9NZ56]", "values": [{"measurement": "Binder?", "setting": "LC8 [1]; [4]", "value": "N"}]}, {"sequence": "YKIEIPTQCPSCGSK [DNLJ2 (phage T5), synthetic peptide from DNLJ2 (phage T5), UniProt Q5DMI6]", "values": [{"measurement": "Binder?", "setting": "LC8 [1]; [4]", "value": "N"}]}]}
